Columns and labels:
Fibroblast = assay: Incucyte cell viability with human fibroblast; assay type: toxicity, cell-based; settings: 10 µM, compound concentration 10 uM
HEK-293T = assay: Incucyte cell viability with HEK293T; assay type: toxicity, cell-based; settings: human, 10 µM, compound concentration 10 uM
[1] = 0 h, replicate number 1, timepoint 0 hours
[2] = 6 h, replicate number 2, timepoint 6 hours
[3] = 12 h, replicate number 1, timepoint 12 hours
[4] = 18 h, replicate number 1, timepoint 18 hours
[5] = 24 h, replicate number 1, timepoint 24 hours
[6] = 0 h, replicate number 2, timepoint 0 hours
[7] = 6 h, replicate number 1, timepoint 6 hours
[8] = 24 h, replicate number 2, timepoint 24 hours
[9] = 12 h, replicate number 2, timepoint 12 hours
[10] = 18 h, replicate number 2, timepoint 18 hours
Note: filed as whole numbers so only -1 and 0 and 1 occur.

CNC(=O)c1ccc(Nc2nc(OC3CCCC3)c3c(-c4ccc5nc(C)oc5c4)c[nH]c3n2)c(OC)c1
Growth Rate (Fibroblast; [1]): 0 | Growth Rate (Fibroblast; [2]): 0 | Growth Rate (Fibroblast; [3]): 0 | Growth Rate (Fibroblast; [4]): 0 | Growth Rate (Fibroblast; [5]): 0 | Growth Rate (HEK-293T; [6]): 1 | Growth Rate (HEK-293T; [7]): 0 | Growth Rate (HEK-293T; [3]): 0 | Growth Rate (HEK-293T; [4]): 0 | Growth Rate (HEK-293T; [5]): 0

CCN1CCN(Cc2ccc(Nc3ncc(F)c(-c4cc(F)c5nc(C)n(C(C)C)c5c4)n3)nc2)CC1.CS(=O)(=O)O
Growth Rate (Fibroblast; [1]): 0 | Growth Rate (Fibroblast; [4]): 1 | Growth Rate (Fibroblast; [5]): 0 | Growth Rate (Fibroblast; [8]): 1 | Growth Rate (HEK-293T; [1]): 0 | Growth Rate (HEK-293T; [7]): 0 | Growth Rate (HEK-293T; [3]): 0 | Growth Rate (HEK-293T; [4]): 0 | Growth Rate (HEK-293T; [5]): 0

O=C(Nc1ccc(-c2ccnc(Nc3ccc(N4CCOCC4)cc3)n2)cc1)[C@@H]1CCCN1
Growth Rate (Fibroblast; [1]): 0 | Growth Rate (Fibroblast; [4]): 1 | Growth Rate (Fibroblast; [5]): 0 | Growth Rate (HEK-293T; [1]): 1 | Growth Rate (HEK-293T; [7]): 0 | Growth Rate (HEK-293T; [3]): 0 | Growth Rate (HEK-293T; [4]): 0 | Growth Rate (HEK-293T; [5]): 0

CCN(CC)S(=O)(=O)Nc1cccc(-c2ccc3c(NC(=O)C4CC4)n[nH]c3c2)c1
Growth Rate (Fibroblast; [7]): 0 | Growth Rate (Fibroblast; [3]): 0 | Growth Rate (Fibroblast; [4]): 0 | Growth Rate (Fibroblast; [5]): 0 | Growth Rate (HEK-293T; [1]): 0 | Growth Rate (HEK-293T; [7]): 0 | Growth Rate (HEK-293T; [3]): 0 | Growth Rate (HEK-293T; [4]): 0 | Growth Rate (HEK-293T; [5]): 0

CCc1cccc(CC)c1NC(=O)c1nn(C)c2c1CCc1cnc(Nc3ccc(N4CCN(C)CC4)cc3OC)nc1-2
Growth Rate (Fibroblast; [6]): 1 | Growth Rate (Fibroblast; [7]): 0 | Growth Rate (Fibroblast; [3]): 0 | Growth Rate (Fibroblast; [4]): 0 | Growth Rate (Fibroblast; [5]): 0 | Growth Rate (HEK-293T; [6]): 0 | Growth Rate (HEK-293T; [7]): 0 | Growth Rate (HEK-293T; [3]): 0 | Growth Rate (HEK-293T; [4]): 0 | Growth Rate (HEK-293T; [5]): 0

Cl.O=c1c2cccn2c2ccccc2n1CCCN1CCC(c2ccc(Cl)cc2)CC1
Growth Rate (Fibroblast; [1]): 1 | Growth Rate (Fibroblast; [7]): 0 | Growth Rate (Fibroblast; [3]): 0 | Growth Rate (Fibroblast; [4]): 0 | Growth Rate (Fibroblast; [5]): 0 | Growth Rate (HEK-293T; [1]): 0 | Growth Rate (HEK-293T; [7]): 0 | Growth Rate (HEK-293T; [3]): 0 | Growth Rate (HEK-293T; [4]): 0 | Growth Rate (HEK-293T; [5]): 0

CNc1cc(Oc2cc(C(=O)Nc3cc(N4CCN(C)CC4)cc(C(F)(F)F)c3)ccc2C)ncn1
Growth Rate (Fibroblast; [1]): 0 | Growth Rate (Fibroblast; [7]): 0 | Growth Rate (Fibroblast; [3]): 0 | Growth Rate (Fibroblast; [4]): 0 | Growth Rate (Fibroblast; [5]): 0 | Growth Rate (HEK-293T; [7]): 0 | Growth Rate (HEK-293T; [3]): 0 | Growth Rate (HEK-293T; [4]): 0 | Growth Rate (HEK-293T; [5]): 0

Cl.O=C(c1ccc(Nc2nccc(-c3cc4ccccc4s3)n2)cc1)N1CCC(N2CCCC2)CC1
Growth Rate (Fibroblast; [1]): 0 | Growth Rate (Fibroblast; [7]): 0 | Growth Rate (Fibroblast; [3]): 0 | Growth Rate (Fibroblast; [4]): 0 | Growth Rate (Fibroblast; [5]): 0 | Growth Rate (HEK-293T; [7]): 0 | Growth Rate (HEK-293T; [3]): 0 | Growth Rate (HEK-293T; [4]): 0 | Growth Rate (HEK-293T; [5]): 0

COc1ccc(S(=O)(=O)N(CCO)c2ccccc2CN(C)C/C=C/c2ccc(Cl)cc2)cc1.O=P(O)(O)O
Growth Rate (Fibroblast; [6]): 1 | Growth Rate (Fibroblast; [7]): 0 | Growth Rate (Fibroblast; [2]): 1 | Growth Rate (Fibroblast; [3]): 0 | Growth Rate (Fibroblast; [4]): 0 | Growth Rate (Fibroblast; [5]): 0 | Growth Rate (HEK-293T; [7]): 0 | Growth Rate (HEK-293T; [3]): 0 | Growth Rate (HEK-293T; [4]): 0 | Growth Rate (HEK-293T; [5]): 0

Cc1ccc2nc(NCCN)c3ncc(C)n3c2c1.O=C(O)C(F)(F)F.O=C(O)C(F)(F)F
Growth Rate (Fibroblast; [6]): 0 | Growth Rate (Fibroblast; [7]): 0 | Growth Rate (Fibroblast; [3]): 0 | Growth Rate (Fibroblast; [4]): 0 | Growth Rate (Fibroblast; [5]): 0 | Growth Rate (HEK-293T; [1]): 0 | Growth Rate (HEK-293T; [6]): 1 | Growth Rate (HEK-293T; [7]): 0 | Growth Rate (HEK-293T; [3]): 0 | Growth Rate (HEK-293T; [4]): 0 | Growth Rate (HEK-293T; [5]): 0

NC(=O)c1cccc(-c2cc(Nc3ccc(OC(F)(F)F)cc3)ncn2)c1
Growth Rate (Fibroblast; [1]): 1 | Growth Rate (Fibroblast; [6]): 0 | Growth Rate (Fibroblast; [7]): 0 | Growth Rate (Fibroblast; [2]): 1 | Growth Rate (Fibroblast; [3]): 0 | Growth Rate (Fibroblast; [9]): 1 | Growth Rate (Fibroblast; [4]): 0 | Growth Rate (Fibroblast; [10]): 1 | Growth Rate (Fibroblast; [5]): 0 | Growth Rate (Fibroblast; [8]): 1 | Growth Rate (HEK-293T; [1]): 0 | Growth Rate (HEK-293T; [7]): 0 | Growth Rate (HEK-293T; [3]): 0 | Growth Rate (HEK-293T; [4]): 0 | Growth Rate (HEK-293T; [5]): 0

CN1C2CCC1CC(OC(c1ccc(F)cc1)c1ccc(F)cc1)C2.Cl (centres undefined)
Growth Rate (Fibroblast; [7]): 1 | Growth Rate (Fibroblast; [2]): 0 | Growth Rate (Fibroblast; [3]): 1 | Growth Rate (Fibroblast; [9]): 0 | Growth Rate (Fibroblast; [4]): 1 | Growth Rate (Fibroblast; [10]): 0 | Growth Rate (Fibroblast; [5]): 0 | Growth Rate (HEK-293T; [6]): 1 | Growth Rate (HEK-293T; [7]): 0 | Growth Rate (HEK-293T; [3]): 0 | Growth Rate (HEK-293T; [4]): 0 | Growth Rate (HEK-293T; [5]): 0

CCOC(=O)c1c(C)[nH]c2ccc3c(c12)CN1CCc2cc(OC)ccc2C1O3 (centres undefined)
Growth Rate (Fibroblast; [7]): 0 | Growth Rate (Fibroblast; [3]): 0 | Growth Rate (Fibroblast; [4]): 0 | Growth Rate (Fibroblast; [5]): 0 | Growth Rate (HEK-293T; [6]): 0 | Growth Rate (HEK-293T; [7]): 0 | Growth Rate (HEK-293T; [3]): 0 | Growth Rate (HEK-293T; [4]): 0 | Growth Rate (HEK-293T; [5]): 0

C=CCn1c(=O)c2cnc(Nc3ccc(N4CCN(C)CC4)cc3)nc2n1-c1cccc(C(C)(C)O)n1 [ADAVOSERTIB]
Growth Rate (Fibroblast; [1]): 0 | Growth Rate (Fibroblast; [7]): 0 | Growth Rate (Fibroblast; [3]): 0 | Growth Rate (Fibroblast; [4]): 0 | Growth Rate (Fibroblast; [5]): 0 | Growth Rate (HEK-293T; [7]): 0 | Growth Rate (HEK-293T; [3]): 0 | Growth Rate (HEK-293T; [4]): 0 | Growth Rate (HEK-293T; [5]): 0

COc1cc(N2CCC(N3CCN(C)CC3)CC2)ccc1Nc1ncnc(Nc2ccccc2S(=O)(=O)C(C)C)n1 [ASP-3026]
Growth Rate (Fibroblast; [6]): 0 | Growth Rate (Fibroblast; [7]): 0 | Growth Rate (Fibroblast; [3]): 0 | Growth Rate (Fibroblast; [4]): 0 | Growth Rate (Fibroblast; [5]): 0 | Growth Rate (HEK-293T; [7]): 0 | Growth Rate (HEK-293T; [3]): 0 | Growth Rate (HEK-293T; [4]): 0 | Growth Rate (HEK-293T; [5]): 0
